Our source for the mutagenic call values is PubChem BioAssay AID1259407 (Chemical Carcinogenesis Research Information System (CCRIS), 2018).

The data set has as its system CCRIS mutagenicity, Ames/micronucleus/aberration tests. Briefly: CCRIS mutagenicity studies.
Setting [1] is: Test System: AMES SALMONELLA TYPHIMURIUM, Strain/Indicator: TA98, Metabolic Activation: HAMSTER, LIVER, S-9, AROCLOR 1254, Method: STANDARD PLATE.
Where [2] appears, read: Test System: AMES SALMONELLA TYPHIMURIUM, Strain/Indicator: TA98, Metabolic Activation: NONE, Method: STANDARD PLATE.
The mark [3] stands for this setting: Test System: AMES SALMONELLA TYPHIMURIUM, Strain/Indicator: TA98, Metabolic Activation: RAT, LIVER, S-9, AROCLOR 1254, Method: STANDARD PLATE.
Setting [4] is: Test System: AMES SALMONELLA TYPHIMURIUM, Strain/Indicator: TA100, Metabolic Activation: HAMSTER, LIVER, S-9, AROCLOR 1254, Method: STANDARD PLATE.
The mark [5] stands for this setting: Test System: AMES SALMONELLA TYPHIMURIUM, Strain/Indicator: TA100, Metabolic Activation: NONE, Method: STANDARD PLATE.
Setting [6] is: Test System: AMES SALMONELLA TYPHIMURIUM, Strain/Indicator: TA100, Metabolic Activation: RAT, LIVER, S-9, AROCLOR 1254, Method: STANDARD PLATE.
The mark [7] stands for this setting: Test System: AMES SALMONELLA TYPHIMURIUM, Strain/Indicator: TA1535, Metabolic Activation: HAMSTER, LIVER, S-9, AROCLOR 1254, Method: STANDARD PLATE.
The mark [8] stands for this setting: Test System: AMES SALMONELLA TYPHIMURIUM, Strain/Indicator: TA1535, Metabolic Activation: NONE, Method: STANDARD PLATE.
[9] abbreviates: Test System: AMES SALMONELLA TYPHIMURIUM, Strain/Indicator: TA1535, Metabolic Activation: RAT, LIVER, S-9, AROCLOR 1254, Method: STANDARD PLATE.
Where [10] appears, read: Test System: AMES SALMONELLA TYPHIMURIUM, Strain/Indicator: TA1537, Metabolic Activation: HAMSTER, LIVER, S-9, AROCLOR 1254, Method: STANDARD PLATE.
[11] abbreviates: Test System: AMES SALMONELLA TYPHIMURIUM, Strain/Indicator: TA1537, Metabolic Activation: NONE, Method: STANDARD PLATE.
[12] abbreviates: Test System: AMES SALMONELLA TYPHIMURIUM, Strain/Indicator: TA1537, Metabolic Activation: RAT, LIVER, S-9, AROCLOR 1254, Method: STANDARD PLATE.

Active and inactive are the calls of the source. How the calls were made is not given here.

For the compound `O=C(CCc1ccc(O)cc1)c1c(O)cc(O)cc1O`, the mutagenic call under setting [1] is “inactive; negative”; the mutagenic call under setting [2] was “inactive; negative”; the mutagenic call under setting [3] is “inactive; negative”; the mutagenic call under setting [4] was “inactive; negative”; the mutagenic call under setting [5] is “inactive; negative”; the mutagenic call under setting [6] is “inactive; negative”. Also, the mutagenic call was “inactive; negative” under setting [7]; “inactive; negative” under setting [8]; “inactive; negative” under setting [9]; “inactive; negative” under setting [10]; “inactive; negative” under setting [11]; “inactive; negative” under setting [12]. The mutagenic call was “inactive; negative” (Test System: AMES SALMONELLA TYPHIMURIUM, Strain/Indicator: TA1538, Metabolic Activation: HAMSTER, LIVER, S-9, AROCLOR 1254, Method: STANDARD PLATE); “inactive; negative” (Test System: AMES SALMONELLA TYPHIMURIUM, Strain/Indicator: TA1538, Metabolic Activation: NONE, Method: STANDARD PLATE); “inactive; negative” (Test System: AMES SALMONELLA TYPHIMURIUM, Strain/Indicator: TA1538, Metabolic Activation: RAT, LIVER, S-9, AROCLOR 1254, Method: STANDARD PLATE).

Consider `CS(=O)(=O)Nc1ccc(Nc2c3ccccc3nc3ccc(N=[N+]=[N-])cc23)cc1`, for which, under setting [11], the mutagenic call is “active; positive”.

In the case of `CN(CC(N)=O)C(=O)N(CCCl)N=O`, the mutagenic call is “active; positive” (Test System: Mouse lymphoma, Strain/Indicator: L5178Y (tk+/tk-), Metabolic Activation: None, Method: Suspension/plate) and “active; positive” (Test System: Mouse lymphoma, Strain/Indicator: L5178Y (tk+/tk-), Metabolic Activation: Rat, Liver, S-9, Aroclor 1254, Method: Suspension/plate).

Turning to `ONc1cccc(-c2ccccc2)c1`, the mutagenic call was “inactive; negative” under setting [2] and “inactive; negative” under setting [5].

Regarding `Cc1noc(NS(=O)(=O)c2ccc(N)cc2)c1C`, the mutagenic call (End Point: IN VITRO CHROMOSOMAL ABERRATIONS, Test System: CHO CELLS, Metabolic Activation: NONE) is “inactive; negative”; the mutagenic call (End Point: IN VITRO CHROMOSOMAL ABERRATIONS, Test System: CHO CELLS, Metabolic Activation: RAT, LIVER, S-9, AROCLOR 1254) was “inactive; negative”; the mutagenic call (Test System: AMES SALMONELLA TYPHIMURIUM, Strain/Indicator: TA97, Metabolic Activation: HAMSTER, LIVER, S-9, AROCLOR 1254 (10 OR 30%), Method: PREINCUBATION) is “inactive; negative”; the mutagenic call (Test System: AMES SALMONELLA TYPHIMURIUM, Strain/Indicator: TA97, Metabolic Activation: NONE, Method: PREINCUBATION) was “inactive; negative”; the mutagenic call (Test System: AMES SALMONELLA TYPHIMURIUM, Strain/Indicator: TA97, Metabolic Activation: RAT, LIVER, S-9, AROCLOR 1254 (10 OR 30%), Method: PREINCUBATION) is “inactive; negative”; the mutagenic call (Test System: AMES SALMONELLA TYPHIMURIUM, Strain/Indicator: TA98, Metabolic Activation: HAMSTER, LIVER, S-9, AROCLOR 1254 (10 OR 30%), Method: PREINCUBATION) is “inactive; negative”. For the same compound, the mutagenic call (Test System: AMES SALMONELLA TYPHIMURIUM, Strain/Indicator: TA98, Metabolic Activation: NONE, Method: PREINCUBATION) was “inactive; negative”; the mutagenic call (Test System: AMES SALMONELLA TYPHIMURIUM, Strain/Indicator: TA98, Metabolic Activation: RAT, LIVER, S-9, AROCLOR 1254 (10 OR 30%), Method: PREINCUBATION) is “inactive; negative”; the mutagenic call (Test System: AMES SALMONELLA TYPHIMURIUM, Strain/Indicator: TA100, Metabolic Activation: HAMSTER, LIVER, S-9, AROCLOR 1254 (10 OR 30%), Method: PREINCUBATION) was “inactive; negative”; the mutagenic call (Test System: AMES SALMONELLA TYPHIMURIUM, Strain/Indicator: TA100, Metabolic Activation: NONE, Method: PREINCUBATION) was “inactive; negative”; the mutagenic call (Test System: AMES SALMONELLA TYPHIMURIUM, Strain/Indicator: TA100, Metabolic Activation: RAT, LIVER, S-9, AROCLOR 1254 (10 OR 30%), Method: PREINCUBATION) was “inactive; negative”; the mutagenic call (Test System: AMES SALMONELLA TYPHIMURIUM, Strain/Indicator: TA1535, Metabolic Activation: HAMSTER, LIVER, S-9, AROCLOR 1254 (10 OR 30%), Method: PREINCUBATION) was “inactive; negative”. Also, the mutagenic call is “inactive; negative” (Test System: AMES SALMONELLA TYPHIMURIUM, Strain/Indicator: TA1535, Metabolic Activation: NONE, Method: PREINCUBATION); “inactive; negative” (Test System: AMES SALMONELLA TYPHIMURIUM, Strain/Indicator: TA1535, Metabolic Activation: RAT, LIVER, S-9, AROCLOR 1254 (10 OR 30%), Method: PREINCUBATION); “inactive; negative” (Test System: E. COLI, Strain/Indicator: WP2 UVRA, Metabolic Activation: HAMSTER, LIVER, S-9, AROCLOR 1254, Method: STANDARD PLATE); “inactive; negative” (Test System: E. COLI, Strain/Indicator: WP2 UVRA, Metabolic Activation: HAMSTER, LIVER, S-9, Method: STANDARD PLATE); “inactive; negative” (Test System: E. COLI, Strain/Indicator: WP2 UVRA, Metabolic Activation: MOUSE, LIVER, S-9, AROCLOR 1254, Method: STANDARD PLATE); “inactive; negative” (Test System: E. COLI, Strain/Indicator: WP2 UVRA, Metabolic Activation: MOUSE, LIVER, S-9, Method: STANDARD PLATE). The mutagenic call reads like this: (Test System: E. COLI, Strain/Indicator: WP2 UVRA, Metabolic Activation: NONE, Method: STANDARD PLATE) “inactive; negative”; (Test System: E. COLI, Strain/Indicator: WP2 UVRA, Metabolic Activation: RAT, LIVER, S-9, AROCLOR 1254, Method: STANDARD PLATE) “inactive; negative”; (Test System: E. COLI, Strain/Indicator: WP2 UVRA, Metabolic Activation: RAT, LIVER, S-9, Method: STANDARD PLATE) “inactive; negative”.

On to `CC(C)CCON=O`, for which the mutagenic call reads like this: (End Point: IN VITRO CHROMOSOMAL ABERRATIONS, Test System: CHINESE HAMSTER OVARY CELLS, Metabolic Activation: NONE) “active; positive”; (End Point: IN VITRO CHROMOSOMAL ABERRATIONS, Test System: CHINESE HAMSTER OVARY CELLS, Metabolic Activation: RAT, LIVER, S-9, AROCLOR 1254) “inactive; negative”; under setting [1], “inactive; negative”; under setting [2], “inactive; negative”; under setting [3], “inactive; negative”; under setting [4], “inactive; negative”. The mutagenic call reads like this: under setting [5], “inactive; negative”; under setting [6], “inactive; negative”; under setting [7], “active; positive”; under setting [8], “active; positive”; under setting [9], “active; positive”; under setting [10], “inactive; negative”. Moreover, the mutagenic call reads like this: under setting [11], “inactive; negative”; under setting [12], “inactive; negative”; (Test System: MOUSE LYMPHOMA, Strain/Indicator: L5178Y (TK+/TK-), Metabolic Activation: NONE, Method: SUSPENSION/PLATE) “active; positive”; (Test System: MOUSE LYMPHOMA, Strain/Indicator: L5178Y (TK+/TK-), Metabolic Activation: RAT, LIVER, S-9, AROCLOR 1254, Method: SUSPENSION/PLATE) “active; positive”.
